In ChEMBL document CHEMBL3997794, “Design and synthesis of benzodiazepine analogs as isoform-selective human lysine deacetylase inhibitors” (Eur J Med Chem, 2017):

How the values were obtained:
[1] = target: T1, Histone deacetylase 8 (Homo sapiens) (UniProt Q9BY41); experiment: Inhibition of human KDAC8 at 30 uM after 60 mins by fluorescence assay relative to control
T1 sequence (whole entry): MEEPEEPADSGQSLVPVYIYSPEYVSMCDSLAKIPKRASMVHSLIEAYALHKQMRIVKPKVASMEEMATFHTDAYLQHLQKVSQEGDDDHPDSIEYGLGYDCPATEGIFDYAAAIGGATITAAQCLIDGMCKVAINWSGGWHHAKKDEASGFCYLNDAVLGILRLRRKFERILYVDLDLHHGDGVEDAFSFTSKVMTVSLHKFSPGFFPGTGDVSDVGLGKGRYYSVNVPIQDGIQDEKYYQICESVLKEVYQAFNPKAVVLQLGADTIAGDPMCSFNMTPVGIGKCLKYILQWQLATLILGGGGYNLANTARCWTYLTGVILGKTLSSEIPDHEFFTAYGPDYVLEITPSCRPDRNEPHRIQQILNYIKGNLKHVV

Histone deacetylase 1 [2] = target: T2, Histone deacetylase 1 (Homo sapiens, UniProt Q13547); experiment: Inhibition of human KDAC1 using substrate A after 60 mins by fluorescence assay
T2 sequence (Q13547 whole entry): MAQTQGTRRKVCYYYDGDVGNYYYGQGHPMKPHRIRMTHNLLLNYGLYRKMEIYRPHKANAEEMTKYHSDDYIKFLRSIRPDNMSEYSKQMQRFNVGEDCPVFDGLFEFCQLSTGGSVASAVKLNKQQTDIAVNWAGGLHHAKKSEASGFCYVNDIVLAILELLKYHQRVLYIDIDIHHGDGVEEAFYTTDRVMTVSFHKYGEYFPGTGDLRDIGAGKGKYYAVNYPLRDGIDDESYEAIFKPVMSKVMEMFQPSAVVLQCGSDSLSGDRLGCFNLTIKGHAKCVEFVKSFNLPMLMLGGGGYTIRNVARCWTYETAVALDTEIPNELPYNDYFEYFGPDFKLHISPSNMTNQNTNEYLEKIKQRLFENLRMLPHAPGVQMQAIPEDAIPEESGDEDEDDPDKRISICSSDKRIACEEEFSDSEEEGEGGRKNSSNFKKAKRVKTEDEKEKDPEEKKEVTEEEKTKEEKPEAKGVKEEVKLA

Histone deacetylase 3 [3] = target: T3, Histone deacetylase 3 (Homo sapiens, UniProt O15379); experiment: Inhibition of human KDAC3 at 30 uM using FITC-labeled p53 acetylated peptide as substrate after 60 mins by fluorescence assay relative to control
T3 sequence (O15379 whole entry): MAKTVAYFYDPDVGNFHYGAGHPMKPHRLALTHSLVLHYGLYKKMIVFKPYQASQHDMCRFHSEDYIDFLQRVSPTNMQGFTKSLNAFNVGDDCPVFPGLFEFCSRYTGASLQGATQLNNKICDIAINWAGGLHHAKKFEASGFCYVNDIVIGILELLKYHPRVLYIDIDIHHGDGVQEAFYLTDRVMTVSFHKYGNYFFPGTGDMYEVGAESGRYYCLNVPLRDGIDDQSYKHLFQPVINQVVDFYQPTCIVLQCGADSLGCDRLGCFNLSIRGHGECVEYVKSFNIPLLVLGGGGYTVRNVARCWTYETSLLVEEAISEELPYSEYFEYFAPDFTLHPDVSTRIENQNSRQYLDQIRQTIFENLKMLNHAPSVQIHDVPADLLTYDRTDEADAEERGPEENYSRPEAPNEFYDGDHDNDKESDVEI

[4] = target: T4, Protein deacetylase HDAC6 (Homo sapiens) (UniProt Q9UBN7); conditions: at 30 µM
T4 sequence (whole entry): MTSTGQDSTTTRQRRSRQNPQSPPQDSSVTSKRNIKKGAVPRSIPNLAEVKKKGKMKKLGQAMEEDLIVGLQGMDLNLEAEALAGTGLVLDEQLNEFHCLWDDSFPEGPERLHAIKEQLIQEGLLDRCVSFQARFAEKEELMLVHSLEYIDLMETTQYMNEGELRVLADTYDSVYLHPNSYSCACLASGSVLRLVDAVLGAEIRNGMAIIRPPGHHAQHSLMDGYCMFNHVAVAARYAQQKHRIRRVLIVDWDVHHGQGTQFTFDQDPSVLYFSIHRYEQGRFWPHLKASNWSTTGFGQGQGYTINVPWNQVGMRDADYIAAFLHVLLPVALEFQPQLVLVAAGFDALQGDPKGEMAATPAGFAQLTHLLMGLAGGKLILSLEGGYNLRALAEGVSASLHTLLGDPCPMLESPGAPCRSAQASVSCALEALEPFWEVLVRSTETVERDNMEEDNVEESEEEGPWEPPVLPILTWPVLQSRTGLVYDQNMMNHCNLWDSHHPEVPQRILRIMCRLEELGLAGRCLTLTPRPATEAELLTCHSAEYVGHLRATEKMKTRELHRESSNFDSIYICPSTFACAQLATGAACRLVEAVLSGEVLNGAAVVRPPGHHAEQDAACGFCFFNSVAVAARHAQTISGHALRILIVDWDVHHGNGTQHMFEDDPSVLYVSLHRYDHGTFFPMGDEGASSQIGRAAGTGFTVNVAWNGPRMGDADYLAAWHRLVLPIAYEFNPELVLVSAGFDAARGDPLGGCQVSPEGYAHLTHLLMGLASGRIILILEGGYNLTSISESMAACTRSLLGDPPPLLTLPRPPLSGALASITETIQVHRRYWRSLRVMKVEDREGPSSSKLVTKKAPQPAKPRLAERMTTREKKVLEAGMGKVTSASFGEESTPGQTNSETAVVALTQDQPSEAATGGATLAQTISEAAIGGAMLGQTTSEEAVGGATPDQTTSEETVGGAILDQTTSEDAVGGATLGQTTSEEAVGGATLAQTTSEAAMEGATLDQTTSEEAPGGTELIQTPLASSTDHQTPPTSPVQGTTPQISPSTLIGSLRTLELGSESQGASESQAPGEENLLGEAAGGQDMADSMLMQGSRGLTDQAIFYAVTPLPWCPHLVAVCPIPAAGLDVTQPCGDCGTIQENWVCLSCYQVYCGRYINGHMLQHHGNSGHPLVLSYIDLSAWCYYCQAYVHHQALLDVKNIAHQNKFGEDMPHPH
Description: Inhibition of human KDAC6 at 30 uM using FITC-labeled histone H4 acetylated peptide as substrate after 60 mins by fluorescence assay relative to control

Histone deacetylase 1 [5] = target: T2, Histone deacetylase 1; experiment: Inhibition of human KDAC1 at 30 uM using substrate A after 60 mins by fluorescence assay relative to control
[6] = target: T5, Protein deacetylase HDAC6 (Homo sapiens, UniProt Q9UBN7); experiment: Inhibition of human KDAC6 using FITC-labeled histone H4 acetylated peptide as substrate after 60 mins by fluorescence assay
T5 sequence (Q9UBN7 whole entry): T4 sequence (whole entry)

Histone deacetylase 3 [7] = target: T3, Histone deacetylase 3; experiment: Inhibition of human KDAC3 using FITC-labeled p53 acetylated peptide as substrate after 60 mins by fluorescence assay
Histone deacetylase 8 = target: T6, Histone deacetylase 8 (Homo sapiens, UniProt Q9BY41); experiment: Inhibition of human KDAC8 after 60 mins by fluorescence assay
T6 sequence (Q9BY41 whole entry): T1 sequence (whole entry)

| SMILES | inhibition [1] [%] | IC50 (Histone deacetylase 1 [2]) [µM] | inhibition (Histone deacetylase 3 [3]) [%] | inhibition [4] [%] | inhibition (Histone deacetylase 1 [5]) [%] | IC50 [6] [µM] | IC50 (Histone deacetylase 3 [7]) [µM] | IC50 (Histone deacetylase 8) [µM] |
| --- | --- | --- | --- | --- | --- | --- | --- | --- |
| CC(C)(C)Oc1ccc(C[C@@H]2N=C(c3ccccc3)c3ccccc3NC2=O)cc1 | 0 | > 30 | 0 | 0 | 4.79 | > 30 | > 30 | > 30 |
| C[C@@H](OCc1ccccc1)[C@@H]1N=C(c2ccccc2)c2ccccc2N(CCCCC(=O)NO)C1=O | 50.1 | 4.55 | 97.2 | 98.1 | 82.4 | 2.05 | 0.91 | 29.5 |
| CC(C)C[C@@H]1N=C(c2ccccc2)c2ccccc2NC1=O | 0 | > 30 | 0 | 5.48 | 2.85 | > 30 | > 30 | > 30 |
| C[C@@H]1N=C(c2ccccc2)c2ccccc2N(CCCCC(=O)O)C1=O | 8.87 | > 30 | 0 | 0.27 | 11.3 | > 30 | > 30 | > 30 |
| CC(C)(C)OC(=O)NCCCC[C@@H]1N=C(c2ccccc2)c2ccccc2N(CCCCC(=O)O)C1=O | -2.29 | > 30 | 0 | 0 | 6 | > 30 | > 30 | > 30 |
| O=C(O)CCCCN1C(=O)CN=C(c2ccccc2)c2ccccc21 | 4.33 | > 30 | 0 | 0 | 6.45 | > 30 | > 30 | > 30 |
| CC[C@H](C)[C@@H]1N=C(c2ccccc2)c2ccccc2N(CCCCC(=O)OC)C1=O | 2.38 | > 30 | 0 | 0 | 2.83 | > 30 | > 30 | > 30 |
| CC[C@@H](C)[C@@H]1N=C(c2ccccc2)c2ccccc2N(CCCCC(=O)NO)C1=O | 33.1 | 11 | 96.4 | 90.9 | 75.1 | 3.75 | 1.03 | > 30 |
| COC(=O)CCCCN1C(=O)[C@H](CCSC)N=C(c2ccccc2)c2ccccc21 | 0 | > 30 | 0 | 0 | 0 | > 30 | > 30 | > 30 |
| O=C1Nc2ccccc2C(c2ccccc2)=N[C@H]1Cc1cn(C(c2ccccc2)(c2ccccc2)c2ccccc2)cn1 | 13.4 | > 30 | 0 | 12.3 | 8.26 | > 30 | > 30 | > 30 |
| O=C(C[C@@H]1N=C(c2ccccc2)c2ccccc2NC1=O)NO | 12.2 | > 30 | 0 | 0.88 | 9.99 | > 30 | > 30 | > 30 |
| O=C(CCCCN1C(=O)[C@H](Cc2cc3ccccc3[nH]2)N=C(c2ccccc2)c2ccccc21)NO | 34.1 | 16.8 | 98.9 | 93.2 | 60 | 1.95 | 1.01 | > 30 |
| COC(=O)CCCCN1C(=O)[C@H](Cc2ccccc2)N=C(c2ccccc2)c2ccccc21 | 0 | > 30 | 1.85 | 6.49 | 1.72 | > 30 | > 30 | > 30 |
| O=C1Nc2ccccc2C(c2ccccc2)=N[C@H]1Cc1ccccc1 | 0 | > 30 | 0 | 3.33 | 0.91 | > 30 | > 30 | > 30 |
| O=C(O)CC[C@@H]1N=C(c2ccccc2)c2ccccc2NC1=O | 0 | > 30 | 0 | 0 | 2.44 | > 30 | > 30 | > 30 |
| O=C(O)C[C@@H]1N=C(c2ccccc2)c2ccccc2NC1=O | 0 | > 30 | 0 | 0 | 3.13 | > 30 | > 30 | > 30 |
| CSCC[C@@H]1N=C(c2ccccc2)c2ccccc2N(CCCCC(=O)NO)C1=O | 57.7 | 6.43 | 98.9 | 93.1 | 81.6 | 1.7 | 0.43 | 20.3 |
| O=C(CCCCN1C(=O)[C@H](Cc2cncn2C(c2ccccc2)(c2ccccc2)c2ccccc2)N=C(c2ccccc2)c2ccccc21)NO | 1.38 | > 30 | 93.4 | 89.9 | 22.3 | 4.74 | 2.55 | > 30 |
| CC(C)C[C@@H]1N=C(c2ccccc2)c2ccccc2N(CCCCC(=O)NO)C1=O | 45.2 | 5.9 | 98.5 | 91.6 | 80.5 | 2.33 | 0.57 | > 30 |
| N=C(N)NCCC[C@@H]1N=C(c2ccccc2)c2ccccc2N(CCCCC(=O)NO)C1=O | 27.9 | 1.44 | 101 | 91.2 | 91.8 | 2.63 | 0.22 | > 30 |
| O=C(CCCCN1C(=O)[C@H](Cc2cnc[nH]2)N=C(c2ccccc2)c2ccccc21)NO | 42.4 | 13.9 | 99 | 84.6 | 61.4 | 4.98 | 1.32 | > 30 |
| NC(=O)C[C@@H]1N=C(c2ccccc2)c2ccccc2N(CCCCC(=O)NO)C1=O | 26.2 | 22.5 | 90.9 | 82.2 | 57.6 | 5.38 | 3.1 | > 30 |
| O=C(O)CCCCN1C(=O)[C@H](Cc2ccccc2)N=C(c2ccccc2)c2ccccc21 | 6.22 | > 30 | 0.91 | 0 | 11.9 | > 30 | > 30 | > 30 |
| CC(C)(C)Oc1ccc(C[C@@H]2N=C(c3ccccc3)c3ccccc3N(CCCCC(=O)NO)C2=O)cc1 | 89.9 | 6.18 | 98.4 | 92.1 | 82 | 2.87 | 0.85 | 3.3 |
